From PubChem BioAssay AID1850 (Southern Research Specialized Biocontainment Screening …, 2009)
“And” between values parts separate entries of the source, which are not always exact repeats. Identical values can stand only once.

Test system: Salmonella Typhi PhoP-promoter GFP reporter, fluorescence, 4 h
Experiment: Inhibition of PhoP regulon, Salmonella typhi GFP reporter cells, confirmation, 4 h (AID 1850)

| Structure (SMILES) | IC50 |
| --- | --- |
| CCCCCCCCCC[N+](C)(C)CC/C=C1/c2ccccc2Sc2ccc(Cl)cc21 | 13.2 µM |
| CCOC(=O)N/N=C\c1ccc([N+](=O)[O-])o1 | 33.1 µM |
| COc1ccc(/C=N/Nc2cc(C)nc3ccccc23)cc1 | 10.4 µM |
| O=C(Cc1ccccc1)NNC(=S)NC(=O)c1cccs1 | 46.5 µM |
| O=C1C=C(Nc2ccccc2O)c2ccccc2C1=O | 54.5 µM |
| O=C(O)/C(=C\C(=O)c1ccccc1)Nc1ccccc1 | 39.4 µM |
| O[C@@H](c1cc(C(F)(F)F)nc2c(C(F)(F)F)cccc12)[C@H]1CCCCN1 | 40.3 µM |
| CN1CCN(C2=Cc3ccccc3Sc3cc(F)ccc32)CC1 | 66.6 µM |
| Cc1nonc1C(=O)N/N=C/c1ccc([N+](=O)[O-])o1 | 37.5 µM |
| O=C(Nc1ccc([N+](=O)[O-])cc1Cl)c1cc(Cl)ccc1O | 123 µM |
| C[C@H]1c2cccc(O)c2C(O)=C2C(=O)C3(O)C(O)=C(C(N)=O)C(=O)[C@@H](N(C)C)[C@@H]3[C@@H](O)[C@@H]21 (some centres undefined) | 2.01 µM |
| OC(c1cc(C(F)(F)F)nc2c(C(F)(F)F)cccc12)C1CCCCN1 (centres undefined) | 20.3 µM |
| N=c1c2c(n(Cc3ccc(Cl)cc3Cl)c3c1CCC3)CCCC2 | 42.3 µM |
| OC1(c2ccc(Cl)cc2)CCN(Cc2c[nH]c3ccccc23)CC1 | 69.5 µM |
| Cc1ccccc1C(=O)Nc1cccc(C(=O)N/N=C/c2cc(Cl)cc([N+](=O)[O-])c2O)c1 | 47.6 µM |
| Fc1ccc(Nc2c3c(nc4ccccc24)CCC3)cc1 | 35.1 µM |
| Oc1cccc(Nc2nc(NCC3CCCO3)c3ccccc3n2)c1 (centres undefined) | 19.2 µM |
| CCCCCCCCC1=NCCc2c1[nH]c1ccccc21 | 63.1 µM |
| Cc1[nH]c2ccc(OC(F)(F)F)cc2c1CCNCc1ccc(Cl)cc1 | 22.1 µM |
| CCS(=O)(=O)c1ccc2oc(=O)c(/C=C(\O)c3ccc(Cl)cc3)nc2c1 | 76.1 µM |
| Clc1ccc(-c2cc(C3CCNCC3)[nH]n2)c(Cl)c1 | 55 µM |
| Cc1ccc2nc(N(CCCN(C)C)C(=O)c3sc4ccccc4c3Cl)sc2c1 | 35.5 µM |

| Structure (SMILES) | IC50 |
| --- | --- |
| CC(C)(C)c1ccc(OCCCNC2CCCC2)cc1 | 83.2 µM |
| CC1CCC(C(C)C)C(OC(=O)Cn2c(-c3ccc(Br)cc3)[n+](C)c3ccccc32)C1 (centres undefined) | 48.7 µM |
| C#CCOCCOCCOCCNc1nc(N2CCN(C(=O)[C@H]([C@@H](C)CC)n3cc([C@@H](N)Cc4ccc(O)cc4)nn3)CC2)nc(N2CCN(C(=O)[C@H](Cc3cc4ccccc4[nH]3)n3cc([C@@H](N)CC(C)C)nn3)CC2)n1 | 102 µM |
| CCCCCC(=O)NC(=S)NNC(=O)CC | 133 µM |
| CNCCCCOc1ccc(C(C)(C)C)cc1Cl | 77 µM |
| CCCCOc1ccc(NC2=NC3(CCCC3)N=C(N)N2)cc1 | 20.8 µM |
| Cc1ccc(NC(=O)CSC(N)=O)cc1Cl | 10.4 µM |
| CN(C)CCNC(=O)c1ccc(COc2ccc(Cl)cc2Cl)cc1 | 125 µM |
| Fc1ccc(CCNCc2ccc(Cl)c(Cl)c2)cc1 | 36.9 µM |
| CCOC(=O)N1CCN(CCC(=O)c2ccc(Br)cc2)CC1 | 94.5 µM |
| c1ccc(Nc2ccnc(Nc3ccccc3)n2)cc1 | 33.6 µM |
| CNC[C@@H](CC1CCCCC1)NC[C@H](CC(C)C)NCCc1cccc(C(F)(F)F)c1 | 19.8 µM |
| CCCCCOc1ccc(CSC2=NCCN2)cc1[N+](=O)[O-] | 36.8 µM |
| CN(C)CCCNc1cc(C(C)(C)C)nc2c(-c3ccccc3)cnn12 | 31.5 µM |
| CC(=O)NC(c1ccc(Cl)cc1Cl)c1ccc2cccnc2c1O (centres undefined) | 95.5 µM |
| Cc1ccc(-c2csc(NC(=O)C[n+]3cc(-c4ccccc4)n4c3CCC4)n2)cc1 | 20.7 µM |
| CCOC(=O)N/N=C(/C)c1ccc([N+](=O)[O-])o1 | 53.7 µM |
| CCCCn1c(NS(=O)(=O)c2ccccc2)c(C(=O)OCC)c2nc3ccccc3nc21 | 35 µM |
| Fc1ccccc1CCNCc1ccccc1 | 34.1 µM |
| C#CCOCCOCCOCCNc1nc(N2CCN(C(=O)CCCCCCCCCCNC(=O)[C@H]([C@@H](C)CC)n3cc(CCCCCN)nn3)CC2)nc(N2CCN(C(=O)CCCCCCCCCCNC(=O)[C@H]([C@@H](C)CC)n3cc(CCCCN=C(N)N)nn3)CC2)n1 | 20.1 µM |
| CC(=O)NC(c1cccs1)c1cc([N+](=O)[O-])c2cccnc2c1O (centres undefined) | 31.7 µM |
| Oc1[nH]c2ccc(Br)cc2c1N=NC(=S)N1CCOCC1 | 36.6 µM |

| Structure (SMILES) | IC50 |
| --- | --- |
| c1ccc2c(c1)OC(CCCN1CCCCC1)c1ccccc1S2 (centres undefined) | 95.1 µM |
| c1cc2c(cc1C1CCCCC1)c1c3n2CCN=C3CCC1 | 51.1 µM |
| CC[C@H]1OC(=O)[C@H](C)[C@@H](O[C@H]2C[C@@](C)(OC)[C@@H](O)[C@H](C)O2)[C@H](C)[C@@H](O[C@@H]2O[C@H](C)C[C@H](N(C)C)[C@H]2O)[C@](C)(OC)C[C@@H](C)C(=O)[C@H](C)[C@@H](O)[C@]1(C)O | 52 µM |
| Cc1ccc(C[n+]2c(-c3ccc(C)cc3)cc(-c3ccc(C)cc3)cc2-c2ccc(C)cc2)cc1 | 20.1 µM |
| O=C1OCCN1/N=C/c1ccc([N+](=O)[O-])o1 | 33.1 µM |
| OC(CNCCc1ccc(Cl)cc1)COc1cc(Cl)ccc1Cl (centres undefined) | 67.9 µM |
| O=C(C[n+]1cc(-c2ccc(Cl)cc2)n2c1CCC2)N1c2ccccc2Sc2ccccc21 | 81.5 µM |
| Nc1cccc2nc3ccccc3cc12 | 35.7 µM |
| CCCCCCCCCCOC(=O)Cn1c(COc2cccc(OC)c2)[n+](C)c2ccccc21 | 12.7 µM |
| CCN1/C(=C/C=C/C=C/c2sc3ccccc3[n+]2CC)Sc2ccccc21 | 13.2 µM |
| CCCCNC1=CC(=O)C(=O)c2ccccc21 | 13.8 µM |
| COc1ccc(Nc2c3c(nc4ccccc24)CCC3)cc1 | 74.6 µM |
| Cc1cc(OCCCCCN2CCCC2)ccc1Cl | 122 µM |
| Nc1ncn([C@@H]2O[C@H](CO)[C@@H](O)[C@H]2O)c(=O)n1 | 42.5 µM |
| CN1CCN(c2c(F)cc3c(=O)c(C(=O)O)cn4c3c2SCC4)CC1 | 2.46 µM and 3.26 µM |
| Oc1ccc(CN2CCN(Cc3ccccc3)CC2)c2cccnc12 | 33.5 µM |
| COc1cc(CNCCc2c[nH]c3ccccc23)ccc1OCc1ccc(F)cc1 | 50.9 µM |
| Cc1ccc(O)c(Nc2c3ccccc3nc3ccccc23)c1 | 27.7 µM |
| CCn1cc(C(=O)NCC(C)C)c(=O)c2cc(F)c(N3CCN(C)CC3)cc21 | 14.9 µM |
| CC(=O)Nc1cccc(NC(=O)Nc2ccc(F)cc2F)c1 | 40.8 µM |
| Oc1ccc(C2NCc3ccccc3-n3cccc32)cc1Cl (centres undefined) | 150 µM |
| Cc1ccc(NC(=O)CN(C)C2CCCCC2)cc1Br | 81.2 µM |

| Structure (SMILES) | IC50 |
| --- | --- |
| O=C(NC(=S)NNC(=O)c1ccccc1O)c1ccco1 | 29.5 µM |
| CSc1ccc2c(c1)N(CCC1CCCCN1C)c1ccccc1S2 (centres undefined) | 74 µM |
| O=C(CC(=O)c1c(F)cccc1Cl)c1ccccc1O | 50.8 µM |
| CC1CCC(C(C)C)C(OC(=O)Cn2c(-c3ccc(Cl)cc3)[n+](C)c3ccccc32)C1 (centres undefined) | 50.4 µM |
| Cc1ccccc1C(=O)NNC(=S)NC(=O)COc1ccccc1 | 132 µM |
| Cn1c(-c2ccc3c(c2)OCO3)cnc1NCc1ccc(Cl)cc1 | 81.8 µM |
| C/C(=N\NC(=O)c1cccc(Br)c1)c1ccccn1 | 36.6 µM |
| CCn1cc(C(=O)NCCO)c(=O)c2cc(F)c(N3CCN(C)CC3)cc21 | 9.31 µM |
| CCCCCCCCCCCCCCCC[n+]1ccc(C(N)=O)cc1 | 10.5 µM |
| C#CCOCCOCCOCCNc1nc(N2CCN(C(=O)CCCCCCCCCCNC(=O)Cn3cc(C[C@@H](C)O)nn3)CC2)nc(N2CCN(C(=O)CCCCCCCCCCNC(=O)[C@@H]([C@H](C)CC)n3cc(CCCCCN)nn3)CC2)n1 | 142 µM |
| CN(C)CCCN(C(=O)c1ccc2c(c1)CCCC2)c1nc2ccc(Cl)cc2s1 | 83.7 µM |
| N=c1n(Cc2ccc(Cl)cc2)c2ccccc2n1CC(O)COc1ccccc1 (centres undefined) | 55.4 µM |
| O=c1[nH][nH]c(-c2ccccc2O)c1C(C[N+](=O)[O-])c1ccc(Br)cc1 (centres undefined) | 91.5 µM |
| Cc1ccc(Nc2c3c(nc4ccccc24)CCC3)cc1 | 19.1 µM |
| CSc1nc2cc(Oc3cccc(Cl)c3Cl)c(Cl)cc2[nH]1 | 37.3 µM |
| CCCCn1c(NS(=O)(=O)c2ccccc2)c(S(=O)(=O)c2ccc(C)cc2)c2nc3ccccc3nc21 | 5.99 µM |
| CC(=O)c1cc(O)c2ccccc2c1O | 111 µM |
| Cc1cc(Cl)c(OCCCNCc2ccccc2)c(Br)c1 | 68.6 µM |
| CCCCCCCSc1cc(OC)c(CCN(C)C)cc1OC | 35.7 µM |
| Cc1nonc1C(=O)N/N=C/c1ccc(O)cc1O | 33.4 µM |
| O=C(Nc1cccc(N=Cc2cc(Cl)cc(Br)c2O)c1)c1ccco1 | 96.9 µM |
| CCCCCCCCCCCCCCCC[n+]1cccc(C(=O)N(CC)CC)c1 | 41.3 µM |

| Structure (SMILES) | IC50 |
| --- | --- |
| CCCCOc1ccc(C(=O)NNC(=S)NC(=O)CC)cc1 | 37.1 µM |
| COc1cc2c3cc1Oc1cc(ccc1O)C[C@@H]1c4c(cc(OC)c(O)c4Oc4ccc(cc4)C[C@H]3N(C)CC2)CCN1C | 144 µM |
| O=C(N/N=C/c1ccc([N+](=O)[O-])o1)C(O)c1ccccc1 (centres undefined) | 35.2 µM |
| Cc1cc(N/N=C/c2ccc(O)cc2)c2cccc(C)c2n1 | 39.9 µM |
| CN1CCC(=C2c3ccccc3C=Cc3ccccc32)CC1 | 105 µM |
| CCC(/C=C1\Sc2ccc(OC)cc2N1CCO)=C\c1sc2ccc(OC)cc2[n+]1CCO | 31.8 µM |
| Cc1nnc(N/N=C/c2ccccn2)[nH]c1=O | 32.8 µM |
| CCCC(=O)NC(c1ccco1)c1cc([N+](=O)[O-])c2cccnc2c1O (centres undefined) | 38.9 µM |
| CC[C@H]1OC(=O)[C@H](C)[C@@H](O[C@H]2C[C@@](C)(OC)[C@@H](O)[C@H](C)O2)[C@H](C)[C@@H](O[C@@H]2O[C@H](C)C[C@H](N(C)C)[C@H]2O)[C@](C)(O)C[C@@H](C)CN(C)[C@H](C)[C@@H](O)[C@]1(C)O | 1.21 µM |
| O/N=C/c1ccc(OCc2ccccc2)c(Cl)c1 | 80.6 µM |
| Nc1ncncc1-c1ccc([N+](=O)[O-])cc1 | 80.1 µM |
| O=[N+]([O-])c1cccc(NNS(=O)(=O)c2ccccc2F)c1 | 6.05 µM |
| Oc1ccc(CN2CCN(c3ccccc3)CC2)c2cccnc12 | 147 µM |
| CCc1cccc2c1Sc1ccccc1CC2N1CCNCC1 (centres undefined) | 50.8 µM |
| C/C(=C\C(=O)OCCCCCCCCC(=O)O)C[C@@H]1OC[C@H](C[C@@H]2O[C@H]2[C@@H](C)[C@H](C)O)[C@@H](O)[C@H]1O | 13.1 µM |
| Cc1cc(N2CCC(C)CC2)nc2cccc(O)c12 | 77.1 µM |
| c1ccc(CN2CCN(c3nc(NCc4ccco4)c4ccccc4n3)CC2)cc1 | 38 µM |
| O=C(CSC1=NC(=O)C(c2ccccc2)C(=O)N1)Nc1cccc(Cl)c1 (centres undefined) | 43.8 µM |
| COc1cc(CNCCc2ccccc2)cc(Cl)c1OCc1ccccc1 | 35.9 µM |
| CCCCCCCCCCCCCCCCn1cc[n+](C)c1 | 31.2 µM |
| CN1CCN(C2Cc3ccc(Cl)cc3Sc3ccc(F)cc32)CC1 (centres undefined) | 37.8 µM |
